In patent US11279733B2, “Peptide antibiotics” (priority 2017, dated 2022):
Converted amounts (≈) assume the structure as drawn. Like-named read-outs stand apart in the source and are kept apart here. Positions of bridges follow the written chain, without caps; N, C: chain ends. Non-standard residues stand in square brackets, D forms with d. Residues, ends and D or L forms follow the SMILES beside them. *: point of attachment. Decanoyl(3R-OH) = CCCCCCC[C@@H](O)CC(=O)*; Phe(4-NH2) = Nc1ccc(C[C@H](N)C(=O)O)cc1; d2Nal = N[C@H](Cc1ccc2ccccc2c1)C(=O)O; dDab = NCC[C@@H](N)C(=O)O; Octanoyl = CCCCCCCC(=O)*; dDap = NC[C@@H](N)C(=O)O; Dab = NCC[C@H](N)C(=O)O; Pentanoyl = CCCCC(=O)*

Tests used:
[1] = in vitro; conditions: human
Procedure: Cytotoxicity of the synthesised peptides was evaluated by comparison with commercially available colistin (polymyxin E), polymyxin B (Sigma chemical Co., St. Louis, Mo., U.S.A.) and synthetic octapeptin C4 by conducting lactate dehydrogenase (LDH) assay. CC50 values calculated based on curve fitting of dose dependent inhibition of cell growth represented the cytotoxicity of the peptide. Human kidney 2 (HK2) cells were seeded as 2000 cells per well in a 384 well cell culture plate in a final volume of 20 μL in DMEM/F12 medium (Invitrogen #11330057), in which 10% of FBS was added. Cells were incubated for 24 hours at 37° C., 5% CO2 to allow cells to attach to the plates. Similar conditions were employed for HEK293 and HepG2 cytotoxicity assays.
Colistin and polymyxin B were tested from a range of 2 mM to 0.9 μM. 120 μL of the 1 mM stock solutions in water of each synthesised peptide were freeze-dried and processed for LDH assay. After freeze-dry procedure, the compounds were reconstituted into 600 μM solutions using culture media. All tested compounds were diluted from 600 μM to 0.27 μM in 3-fold dilutions. Then 20 μL of each dilution was added into 20 uL of culture medium in quadruplicate to reach the final concentrations. The cells were incubated with the compounds for 24 h at 37° C., 5% CO2. After the incubation, 5 μL of culture medium was added to 50 μL of LDH assay buffer and incubated for 1 h at room temperature. The absorbance was read at 450 nm using Polarstar. The data was then analysed by Prism software. […] Nephrotoxicity Assessment in Human Proximal Tubule Cells.

[2] = system: A. baumannii ATCC 19606; conditions: ATCC 19606
How it was run: (§1)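 Mid-log cultures grown in Mueller Hinton broth at 37° C were tested by 2-fold broth microdilution at 5×10^5 CFU/mL final. Compounds were dissolved in water and tested over a final range of 32 to 0.015 μg/mL.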

[3] = system: P. aeruginosa ATCC 27853; conditions: ATCC 27853
How it was run: as §1

[4] = system: P. aeruginosa GN_043, PmxR
How it was run: as §1

[5] = system: K. pneumoniae ATCC 13883; conditions: ATCC 13883
How it was run: as §1

[6] = system: K. pneumoniae ATCC BAA-2146, NDM-1 pos; conditions: ATCC BAA-2146
How it was run: as §1

[7] = system: E. coli ATCC 25922; conditions: ATCC 25922
How it was run: as §1

[8] = system: K. pneumoniae ATCC 700603, MDR; conditions: ATCC 700603
How it was run: as §1

[9] = system: P. aeruginosa GN_105, PmxR; conditions: GN 105, PmxR
How it was run: as §1

[10] = in vitro; conditions: human; remark: listed apart in the source
How it was run: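 4000 cells/well, 24 h attach (37 °C, 5% CO2); compound 24 h; 5 μM resazurin 2 h, 37 °C; fluorescence ex/em 560/590. CC50 by curve fit.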

[11] = system: A. baumannii GN_093 PmxR; conditions: GN 093 PmxR
How it was run: as §1

[12] = system: K. pneumoniae GN_106, PmxR; conditions: GN 106, PmxR
How it was run: as §1

[13] = system: K. pneumoniae GN_102 PmxR; conditions: GN 102 PmxR
How it was run: as §1

[14] = system: S. aureus ATCC 25923, MSSA; conditions: ATCC 25923
How it was run: as §1

Structure (SMILES)	CC50 at 24 h [1]	MIC A. baumannii ATCC 19606 [2]	MIC P. aeruginosa ATCC 27853 [3]	MIC K. pneumoniae ATCC 13883 [5]	MIC K. pneumoniae ATCC BAA-2146, NDM-1 pos [6]	MIC E. coli ATCC 25922 [7]	MIC K. pneumoniae ATCC 700603, MDR [8]	MIC P. aeruginosa GN_043, PmxR ([4]; polymyxin-resistant)	MIC P. aeruginosa GN_105, PmxR [9]	other results
CCCCC(=O)N[C@H](CCN)C(=O)N[C@H]1CCNC(=O)[C@H](CC(C)C)NC(=O)[C@H](CCN)NC(=O)[C@H](CCN)NC(=O)[C@H](CC(C)C)NC(=O)[C@@H](Cc2ccccc2)NC(=O)[C@H](CCN)NC1=O [compound 919, C4CO-D-Dab-cyc[L-Dab-L-Dab-D-Phe-L-Leu-L-Dab-L-Dab-L-Leu]] (Pentanoyl-[dDab][Dab][Dab][dF]L[Dab][Dab]L; lactam 2-C)	> 300 µM	16 µg/mL (≈ 16.7 µM)	2 µg/mL (≈ 2.09 µM)	32 µg/mL (≈ 33.4 µM)	16 µg/mL (≈ 16.7 µM)	32 µg/mL (≈ 33.4 µM)	>32 µg/mL			MIC P. aeruginosa GN_043, PmxR [4]: >32 µg/mL
CCCCCCC[C@@H](O)CC(=O)N[C@H](CO)C(=O)N[C@H]1CCNC(=O)[C@H](CC(C)C)NC(=O)[C@H](CCN)NC(=O)[C@H](CCN)NC(=O)[C@H](CC(C)C)NC(=O)[C@@H](Cc2ccccc2)NC(=O)[C@H](CCN)NC1=O [compound 918, 3(R)OH-nC9CO-D-Ser-cyc[L-Dab-L-Dab-D-Phe-L-Leu-L-Dab-L-Dab-L-Leu]] ({Decanoyl(3R-OH)}-[dS][Dab][Dab][dF]L[Dab][Dab]L; lactam 2-C)	113 µM									MIC, A. baumannii ATCC 19606 [2]: 4 µg/mL (≈ 3.88 µM); MIC, P. aeruginosa ATCC 27853 [3]: 8 µg/mL (≈ 7.76 µM); MIC P. aeruginosa GN_043, PmxR ([4]; Table 6, polymyxin-resistant): >32 µg/mL; MIC, K. pneumoniae ATCC 13883 [5]: 8 µg/mL (≈ 7.76 µM); MIC, K. pneumoniae ATCC BAA-2146, NDM-1 pos [6]: 4 µg/mL (≈ 3.88 µM); MIC, E. coli ATCC 25922 [7]: 8 µg/mL (≈ 7.76 µM); MIC, K. pneumoniae ATCC 700603, MDR [8]: 8 µg/mL (≈ 7.76 µM)
CCCCCCC[C@@H](O)CC(=O)N[C@H](CCN)C(=O)N[C@H]1CCNC(=O)[C@H](Cc2ccccc2)NC(=O)[C@H](CCN)NC(=O)[C@H](CCN)NC(=O)[C@H](CC(C)C)NC(=O)[C@@H](Cc2ccccc2)NC(=O)[C@H](CCN)NC1=O [compound 5004, 3(R)OH-nC9CO-D-Dab-cyc[L-Dab-L-Dab-D-Phe-L-Leu-L-Dab-L-Dab-L-Phe]] ({Decanoyl(3R-OH)}-[dDab][Dab][Dab][dF]L[Dab][Dab]F; lactam 2-C)	23 µM	4 µg/mL (≈ 3.71 µM)	4 µg/mL (≈ 3.71 µM)	4 µg/mL (≈ 3.71 µM)	4 µg/mL (≈ 3.71 µM)	8 µg/mL (≈ 7.42 µM)	8 µg/mL (≈ 7.42 µM)	2 µg/mL (≈ 1.85 µM)	8 µg/mL (≈ 7.42 µM)	
CCCCCCC[C@@H](O)CC(=O)N[C@H](CCN)C(=O)N[C@H]1CCNC(=O)[C@H]([C@@H](C)O)NC(=O)[C@H](CCCNC(=N)N)NC(=O)[C@H](CCN)NC(=O)[C@H](CC(C)C)NC(=O)[C@@H](Cc2ccccc2)NC(=O)[C@H](CCN)NC1=O [compound 5606, 3(R)OH-nC9CO-D-Dab-cyc[L-Dab-L-Dab-D-Phe-L-Leu-L-Dab-L-Arg-L-Thr]] ({Decanoyl(3R-OH)}-[dDab][Dab][Dab][dF]L[Dab]RT; lactam 2-C)	137 µM		2 µg/mL (≈ 1.84 µM)	32 µg/mL (≈ 29.4 µM)	>32 µg/mL	>32 µg/mL	16 µg/mL (≈ 14.7 µM)			
CCCCCCC[C@@H](O)CC(=O)N[C@H](CCN)C(=O)N[C@H]1CCNC(=O)[C@H]([C@@H](C)O)NC(=O)[C@H](Cc2ccc(N)cc2)NC(=O)[C@H](CCN)NC(=O)[C@H](CC(C)C)NC(=O)[C@@H](Cc2ccccc2)NC(=O)[C@H](CCN)NC1=O [compound 5605, 3(R)OH-nC9CO-D-Dab-cyc[L-Dab-L-Dab-D-Phe-L-Leu-L-Dab-L-4NH2Phe-L-Thr]] ({Decanoyl(3R-OH)}-[dDab][Dab][Dab][dF]L[Dab][Phe(4-NH2)]T; lactam 2-C)	115 µM		8 µg/mL (≈ 7.31 µM)	16 µg/mL (≈ 14.6 µM)	16 µg/mL (≈ 14.6 µM)	16 µg/mL (≈ 14.6 µM)	32 µg/mL (≈ 29.2 µM)			
CCCCCCC[C@@H](O)CC(=O)N[C@H](CCN)C(=O)N[C@H]1CCNC(=O)[C@H](Cc2ccccc2)NC(=O)[C@H](CCN)NC(=O)[C@H](CCN)NC(=O)[C@H](Cc2ccccc2)NC(=O)[C@@H](Cc2ccccc2)NC(=O)[C@H](CCN)NC1=O [compound 5005, 3(R)OH-nC9CO-D-Dab-cyc[L-Dab-L-Dab-D-Phe-L-Phe-L-Dab-L-Dab-L-Phe]] ({Decanoyl(3R-OH)}-[dDab][Dab][Dab][dF]F[Dab][Dab]F; lactam 2-C)	54 µM	>32 µg/mL	2 µg/mL (≈ 1.8 µM)	4 µg/mL (≈ 3.6 µM)	8 µg/mL (≈ 7.19 µM)	8 µg/mL (≈ 7.19 µM)	8 µg/mL (≈ 7.19 µM)	2 µg/mL (≈ 1.8 µM)		
CCCCCCC[C@@H](O)CC(=O)N[C@H](CO)C(=O)N[C@H]1CCNC(=O)[C@H]([C@@H](C)O)NC(=O)[C@H](CCN)NC(=O)[C@H](CCN)NC(=O)[C@H](CC(C)C)NC(=O)[C@@H](Cc2ccccc2)NC(=O)[C@H](CCN)NC1=O [compound 754, 3(R)OH-nC9CO-D-Ser-cyc[L-Dab-L-Dab-D-Phe-L-Leu-L-Dab-L-Dab-L-Thr]] ({Decanoyl(3R-OH)}-[dS][Dab][Dab][dF]L[Dab][Dab]T; lactam 2-C)	154 µM	16 µg/mL (≈ 15.7 µM)	4 µg/mL (≈ 3.92 µM)	32 µg/mL (≈ 31.4 µM)	32 µg/mL (≈ 31.4 µM)	32 µg/mL (≈ 31.4 µM)	32 µg/mL (≈ 31.4 µM)			MIC P. aeruginosa GN_043, PmxR ([4]; P. aeruginosa GN_043, PmxR): >32 µg/mL
CCCCCCCC(=O)N[C@H](CN)C(=O)N[C@H]1CCNC(=O)[C@H](CC(C)C)NC(=O)[C@H](CCN)NC(=O)[C@H](CCN)NC(=O)[C@H](CC(C)C)NC(=O)[C@@H](Cc2ccccc2)NC(=O)[C@H](CCN)NC1=O [compound 8976, nC7CO-D-Dap-cyc[L-Dab-L-Dab-D-Phe-L-Leu-L-Dab-L-Dab-L-Leu]] (Octanoyl-[dDap][Dab][Dab][dF]L[Dab][Dab]L; lactam 2-C)									2 µg/mL (≈ 2.03 µM)	CC50 at 24 h [10]: > 300 µM; MIC A. baumannii GN_093 PmxR [11]: 8 µg/mL (≈ 8.11 µM); MIC, A. baumannii ATCC 19606 [2]: >32 µg/mL; MIC K. pneumoniae GN_106, PmxR [12]: 16 µg/mL (≈ 16.2 µM); MIC, P. aeruginosa ATCC 27853 [3]: 2 µg/mL (≈ 2.03 µM); MIC K. pneumoniae GN_102 PmxR [13]: 16 µg/mL (≈ 16.2 µM); MIC P. aeruginosa GN_043, PmxR ([4]; Table 6, polymyxin-resistant): 2 µg/mL (≈ 2.03 µM); MIC, S. aureus ATCC 25923, MSSA [14]: >32 µg/mL; MIC, K. pneumoniae ATCC 13883 [5]: 8 µg/mL (≈ 8.11 µM); MIC, K. pneumoniae ATCC BAA-2146, NDM-1 pos [6]: 8 µg/mL (≈ 8.11 µM); MIC, E. coli ATCC 25922 [7]: 4 µg/mL (≈ 4.06 µM); MIC, K. pneumoniae ATCC 700603, MDR [8]: 8 µg/mL (≈ 8.11 µM)
CCCCCCC[C@@H](O)CC(=O)N[C@H](CCN)C(=O)N[C@H]1CCNC(=O)[C@H](Cc2c[nH]c3ccccc23)NC(=O)[C@H](CCN)NC(=O)[C@H](CCN)NC(=O)[C@H](CC(C)C)NC(=O)[C@@H](Cc2ccc3ccccc3c2)NC(=O)[C@H](CCN)NC1=O [compound 8113, 3(R)OH-nC9CO-D-Dab-cyc[L-Dab-L-Dab-L-Dab-D-Ala(2-Na)-L-Leu-L-Dab-L-Dab-L-Trp]] ({Decanoyl(3R-OH)}-[dDab][Dab][Dab][d2Nal]L[Dab][Dab]W; lactam 2-C)		8 µg/mL (≈ 6.85 µM)	8 µg/mL (≈ 6.85 µM)	4 µg/mL (≈ 3.43 µM)	8 µg/mL (≈ 6.85 µM)	8 µg/mL (≈ 6.85 µM)	8 µg/mL (≈ 6.85 µM)	4 µg/mL (≈ 3.43 µM)	4 µg/mL (≈ 3.43 µM)	CC50 at 24 h [10]: 28 µM; MIC A. baumannii GN_093 PmxR [11]: 8 µg/mL (≈ 6.85 µM); MIC K. pneumoniae GN_106, PmxR [12]: 8 µg/mL (≈ 6.85 µM); MIC K. pneumoniae GN_102 PmxR [13]: 8 µg/mL (≈ 6.85 µM); MIC S. aureus ATCC 25923, MSSA [14]: 4 µg/mL (≈ 3.43 µM)
